Experimental findings from patent US20260097133A1, “EPIGENETIC EDITING TOOL FOR TARGETING HEPATITIS B VIRUS GENE” (priority 2023, published 2026) are described below.

What all share (type): cell-based
Conditions in all cases: sgRNA in GFP-negative cell population, day 14 after transfection of EPIREG

Data set [1] deals with type D HBV surface antigen (HBsAg) reporter cell line. In words: sgRNA lentiviral library screening, HBsAg reporter cell line (NGS reads in GFP-negative cells). The text has this: (§1) In this example, the type D HBV X protein (HBx), core antigen (HBcAg), and surface antigen (HBsAg) reporter cell lines were used for library screening. First, a sgRNA cell library of type D HBV gene was constructed using a reporter cell line according to the method described in example 1. The sgRNA library was packaged into lentivirus to obtain a sgRNA lentiviral library (carrying red fluorescence), the reporter cell line was infected with the lentiviral library, and the red fluorescence was sorted to obtain the sgRNA cell library. Each cell in this sorted cell library integrated a single sgRNA in the library while the cell itself carried a reporter sequence (carrying green fluorescence). The EPIREG tool described in example 2 (the amino acid sequence of the tool was SEQ ID NO: 1194) (carrying blue fluorescence) was transfected and delivered into a cell library carrying both sgRNA and reporter sequences. Red/green/blue fluorescent triple-positive cells were sorted using a flow cytometer and cultured long-term. The EPIREG transfected into the cells could work together with the sgRNA to silence GFP in the reporter. On the day 14 after transfection, the GFP-negative cell population in the cell library was sorted, the genomic DNA of the negative cell population was extracted for NGS sequencing. The sgRNAs with higher sequencing reads in the negative cell population were compared using the untreated cell library as a control reference, so as to obtain the candidate sgRNAs that could play an editing role corresponding to each reporter, respectively (the schematic diagram of this screening scheme is shown in FIG. 6, and the analysis method is referenced to the literature DOI: 10.1186/s13059-014-0554-4). The functionally validated sgRNAs for each reporter cell line are summarized in the following table (arranged by the starting position of the target sequence of each sgRNA).

Data set [2] deals with type D HBV core antigen (HBcAg) reporter cell line. In words: sgRNA lentiviral library screening, HBcAg reporter cell line (NGS reads in GFP-negative cells).
Text: as §1

Data set [3] concerns type D HBV X protein (HBx) reporter cell line. As to the kind of experiment: sgRNA lentiviral library screening, HBx reporter cell line (NGS reads in GFP-negative cells).
Text: as §1

As for “27 (guide AACAAGAGATGATTAGGCAG; listed as DNA, chemistry not fully specified) [compound 27]”, the “Log2 FC” value in data set [1] is reported as 1.3821.
Regarding “62 (guide AATGTCAACGACCGACCTTG; listed as DNA, chemistry not fully specified) [compound 62]”, the “Log2 FC” value was 2.2035 in data set [2] and 1.5364 in data set [1].
In the case of “88 (guide ACATCGTATCCATGGCTGCT; listed as DNA, chemistry not fully specified) [compound 88]”, the figures for the “Log2 FC” value in data set [3], in data set [2] and in data set [1] were 3.4448, 3.4446 and 1.2095, respectively.
Regarding “112 (guide ACCTTTGGATAAAACCTAGC; listed as DNA, chemistry not fully specified) [compound 112]”, the “Log2 FC” value in data set [1] came out at 1.203.
Same read-out and setting: the value for “121 (guide ACTACTGTTGTTAGACGACG; listed as DNA, chemistry not fully specified) [compound 121]” was 1.0553.
With “127 (guide ACTGGCTGGGGCTTGGTCAT; listed as DNA, chemistry not fully specified) [compound 127]”, the “Log2 FC” value in data set [3] came out at 7.231; in data set [2] it was 2.0792; in data set [1], 1.3983.
For “145 (guide AGACTGGGAGGAGTTGGGGG; listed as DNA, chemistry not fully specified) [compound 145]”, the “Log2 FC” value in data set [2] came out at 3.5473; in data set [1], 1.8314.
For the substance “150 (guide AGAGAGGTGCGCCCCGTGGT; listed as DNA, chemistry not fully specified) [compound 150]”, the “Log2 FC” value in data set [3] is listed as 3.8671; in data set [1], 1.453.
Turning to “161 (guide AGATTAAAGGTCTTTGTACT; listed as DNA, chemistry not fully specified) [compound 161]”, the “Log2 FC” value in data set [2] was 2.5156; in data set [1], 1.8238.
With “211 (guide AGTCCCAAGCGACCCCGAGA; listed as DNA, chemistry not fully specified) [compound 211]”, the “Log2 FC” value is reported as 4.6655 in data set [3], 4.4175 in data set [2] and 1.5263 in data set [1].
For “215 (guide AGTCTTTGAAGTATGCCTCA; listed as DNA, chemistry not fully specified) [compound 215]”, the figures for the “Log2 FC” value in data set [2] and in data set [1] were 2.1589 and 1.3799, respectively.
For “227 (guide ATAGAGTATTTGGTGTCTTT; listed as DNA, chemistry not fully specified) [compound 227]”, the “Log2 FC” value in data set [1] is 0.9275.
On to “242 (guide ATCCTGCGGACGACCCTTCT; listed as DNA, chemistry not fully specified) [compound 242]”, for which the “Log2 FC” value in data set [1] was 0.8809.
For the substance “270 (guide ATTTGCTGTGTTTGCTCTGA; listed as DNA, chemistry not fully specified) [compound 270]”, the “Log2 FC” value in data set [1] is 1.397.
Same read-out and setting: then “410 (guide CCCGTTGCCCGGCAACGGCC; listed as DNA, chemistry not fully specified) [compound 410]”, with 1.9735.
For the substance “467 (guide CGACCCTTCTCGGGGTCGCT; listed as DNA, chemistry not fully specified) [compound 467]”, the figures for the “Log2 FC” value in data set [3], in data set [2] and in data set [1] were 2.9245, 2.0481 and 1.8988, respectively.
For “483 (guide CGCCCCGTGGTCGGTCGGAA; listed as DNA, chemistry not fully specified) [compound 483]” the same measures were 6.4685, 4.8386 and 2.4519.
For “491 (guide CGGAACGGCAGACGGAGAAG; listed as DNA, chemistry not fully specified) [compound 491]” the same measures were 6.0674, 4.5168 and 2.6046.
The like results for “506 (guide CGTCCCGCGCAGGATCCAGT; listed as DNA, chemistry not fully specified) [compound 506]” were, in that order, 5.3827, 3.3238 and 1.5863.
In the case of “591 (guide GAAGCGAAGTGCACACGGTC; listed as DNA, chemistry not fully specified) [compound 591]”, the “Log2 FC” value in data set [3] amounted to 5.7107; in data set [2] it was 4.4134.
As to “593 (guide GAATCCCAGAGGATTGCTGG; listed as DNA, chemistry not fully specified) [compound 593]”, the “Log2 FC” value in data set [1] stood at 0.9124.
For the substance “598 (guide GACATGAACAAGAGATGATT; listed as DNA, chemistry not fully specified) [compound 598]”, the “Log2 FC” value amounted to 4.6761 in data set [2] and 1.4722 in data set [1].
Regarding “601 (guide GACCAAGCCCCAGCCAGTGG; listed as DNA, chemistry not fully specified) [compound 601]”, the “Log2 FC” value in data set [3] worked out at 7.1876; in data set [2], 4.6508; in data set [1] it was 1.3073.
Take “612 (guide GACGCAACCCCCACTGGCTG; listed as DNA, chemistry not fully specified) [compound 612]”: the entries for the “Log2 FC” value in data set [3] and in data set [2] were 6.7125 and 2.8035, respectively.
On to “657 (guide GCAAACACTTGGCACAGACC; listed as DNA, chemistry not fully specified) [compound 657]”, for which the figures for the “Log2 FC” value in data set [3] and in data set [2] were 3.2226 and 1.9192, respectively.
Regarding “668 (guide GCAGAGGTGAAAAAGTTGCA; listed as DNA, chemistry not fully specified) [compound 668]”, the “Log2 FC” value in data set [2] was determined as 1.9744; in data set [1], 1.297.
On to “671 (guide GCAGCACAGCCTAGCAGCCA; listed as DNA, chemistry not fully specified) [compound 671]”, for which, in data set [1], the “Log2 FC” value is 1.2918.
As for “774 (guide GGGGCGCACCTCTCTTTACG; listed as DNA, chemistry not fully specified) [compound 774]”, the “Log2 FC” value in data set [3] was 3.0494; in data set [1], 1.1527.
Take “829 (guide GTCCTCTTATGTAAGACCTT; listed as DNA, chemistry not fully specified) [compound 829]”: in data set [1], the “Log2 FC” value is 0.9029.
Still for that read-out and setting: the value for “839 (guide GTCTTACATAAGAGGACTCT; listed as DNA, chemistry not fully specified) [compound 839]” was 1.3376.
For “958 (guide TCCTGCGGACGACCCTTCTC; listed as DNA, chemistry not fully specified) [compound 958]”, the figures for the “Log2 FC” value in data set [3] and in data set [2] were 3.9999 and 3.1878, respectively.
Turning to “998 (guide TCTTTGTACTAGGAGGCTGT; listed as DNA, chemistry not fully specified) [compound 998]”, the “Log2 FC” value in data set [2] is 4.2906; in data set [1], 2.1989.
As for “1006 (guide TGACCAAGCCCCAGCCAGTG; listed as DNA, chemistry not fully specified) [compound 1006]”, the “Log2 FC” value is given as 7.0191 in data set [3] and 4.2194 in data set [2].
The like results for “1008 (guide TGACGCAACCCCCACTGGCT; listed as DNA, chemistry not fully specified) [compound 1008]” were, in that order, 4.9717 and 1.8835.
As to “1025 (guide TGCCCAAGGTCTTACATAAG; listed as DNA, chemistry not fully specified) [compound 1025]”, the results for the “Log2 FC” value in data set [2] and in data set [1] were 2.0852 and 1.4524, respectively.
The like results for “1028 (guide TGCCGTTCCGACCGACCACG; listed as DNA, chemistry not fully specified) [compound 1028]” were, in that order, 3.8548 and 0.8922.
In the case of “1065 (guide TGGTCGGTCGGAACGGCAGA; listed as DNA, chemistry not fully specified) [compound 1065]”, the “Log2 FC” value in data set [3] turned out to be 6.0793; in data set [2], 2.8985.
On to “1072 (guide TGTAGTATGCCCTGAGCCTG; listed as DNA, chemistry not fully specified) [compound 1072]”, for which, in data set [1], the “Log2 FC” value is given as 1.1325.
With “1084 (guide TTAAAGGTCTTTGTACTAGG; listed as DNA, chemistry not fully specified) [compound 1084]”, in data set [1], the “Log2 FC” value was determined as 1.0831.
For the substance “1132 (guide TTTACCCCGTTGCCCGGCAA; listed as DNA, chemistry not fully specified) [compound 1132]”, the “Log2 FC” value stood at 4.252 in data set [3] and 2.1043 in data set [2].
